Consider 1 compound from patent US11985974B2, “Antimicrobial ferulic acid derivatives and uses thereof” (WISCONSIN ALUMNI RESEARCH FOUNDATION, priority 2014, dated 2024).

In assay [1] the test system is Saccharomyces cerevisiae. The assay is described as follows: Synergy screening. It is filed as cell-based. On the procedure:
To test for synergy, a 6×6-dose matrix was initially used to identify potentially synergistic dose combinations, and these points were then confirmed in triplicate. Cultures (200 μL) were grown with combinations of poacic acid (125 μg/mL), caspofungin (12.5 ng/mL), and fluconazole (3.8 μg/mL), and the ODs of relevant single-agent and solvent controls were measured after 24 h. Synergy was determined by comparing actual OD in the presence of compound combinations with an expected value calculated using the multiplicative hypothesis. This method assumes that, in the absence of an interaction, each compound would decrease the OD of the cell culture by the same fraction in the presence of the other compound as it does when applied alone (that is, E=A×B/C, where E is the expected OD, A is OD when compound A is applied alone, B is OD when compound B is applied alone, and C is OD of the control culture (DMSO). In the presence of synergy, the actual OD value is lower than the expected OD. A paired t test was used to confirm statistical significance of this difference in three replicates of the experiment.

The test system of assay [2] is yeast cells. The assay is described as follows: Cell leakage assay (FungaLight, flow cytometry). It counts as cell-based, Saccharomyces cerevisiae. The conditions noted are these: 4 h. On the procedure:
A FungaLight Cell Viability Assay (L34952; Invitrogen) using a Guava Flow Cytometer (Millipore) was used to determine if poacic acid caused membrane damage. The population of stained cells (damaged integrity) vs. nonstained cells can be determined by flow cytometry. Caspofungin (50 ng/mL) was included as a positive control. MMS and DMSO were included as a noncell wall-targeting control and a solvent control, respectively. To test the effects of the compounds on both active and arrested cells, log-phase cultures were washed with 1×PBS and resuspended to an OD0.5 in either YPD medium or YP (no carbon source) in the presence of the drugs (n=3) for 4 h at 30° C. The cells were then stained and immediately read by flow cytometry. One-way ANOVA and Tukey's test were used to calculate the difference between drug treatments among cells with arrested growth.

Assay [3] is described as follows: Cell-free glucan staining (binding to purified yeast glucan). Conditions: 0.125% (wt/vol) poacic acid, fluorescence. On the procedure: (§1) β-1,3-Glucan was stained with aniline blue (016-21302; Wako Chemicals) as described previously (Watanabe et al. 2001) with slight modification. Briefly, log-phase yeast cells (his3Δ) were cultured in YPD with poacic acid (125 μg/mL) at 25° C. Then, cells were collected at 0, 2, 4, and 6 h after treatment and stained with aniline blue without fixation as described previously (Okada et al. 2015). Cells mounted on a glass slide were exposed to UV for 30 s to bleach out poacic acid fluorescence before acquiring images. Staining of chitin or mannoproteins with calcofluor white (F3543; Sigma-Aldrich) or Alexa594-ConA (C11253; Life Technologies), respectively, was performed as described previously (Okada et al. 2015). For cell-free glucan staining, yeast glucan (G0331; Tokyo Chemical Industry) was suspended to 0.125% (wt/vol) poacic acid and observed under a fluorescent microscope using a regular DAPI filter set (Carl Zeiss).

For assay [4], the system named is yeast cells (his3Δ). The assay is described as follows: Mannoprotein and glucan staining (aniline blue, Con A). It is filed as cell-based, Saccharomyces cerevisiae. The conditions noted are these: 125 μg/mL, 6 h. The protocol: as §1
For assay [5], the system named is Alternaria solani (field isolate). The assay is described as follows: Colony growth of A. solani on plates. It is filed as cell-based. Conditions: 0, 500, 1,000, 1,500 μg/mL, dose-dependent. The protocol: To test inhibition in liquid culture, a dose curve of 0, 125, 250, and 500 μg/mL poacic acid in 100 mL potato dextrose broth (n=3) was used. Cultures of S. sclerotiorum strain 1980 were inoculated with 100 μL homogenized mycelia and grown at 25° C. for 48 h. The mycelia in the liquid media were dried and weighed. The growth inhibition of poacic acid on solid agar cultures (potato dextrose agar) was assessed by generating replicate plates (n=3) containing 0, 125, 250, and 500 μg/mL poacic acid. Plates were inoculated with an actively growing plug of S. sclerotiorum and grown at 25° C. The mycelial radial growth after 48 h was measured Inhibition of S. sclerotiorum in planta was tested by inoculating detached soybean leaves of the commercial variety Williams 82 with an agar plug of actively growing S. sclerotiorum mycelia. Leaves were treated one time before inoculation with either an aerosol spray of water with DMSO (control) or a 500 μg/mL solution of poacic acid. Leaves were incubated in a moist environment, and lesion development was monitored up to 120 h postinoculation. […] The growth inhibition of poacic acid was assessed at 0, 500, 1,000, and 1,500 μg/mL in replicate plates (n=3). […] Colony diameter was monitored for each treatment in a time-course experiment. […]

Regarding `COc1cc(/C=C/c2cc(/C=C/C(=O)O)cc(OC)c2O)ccc1O` [poacic acid, (E)-4-Hydroxy-3-{2-[(E)-4-hydroxy-3-methoxystyryl]}-5-methoxycinnamic acid], the “synergy with methyl methanesulfonate (MMS)” value in assay [1] is reported as “not synergistic”. Also, the synergy with caspofungin entry in assay [1] (poacic acid 125 μg/mL + caspofungin 12.5 ng/mL, 24 h, P<0.05) was “significant synergistic effects”. For the same compound, the synergy with fluconazole result in assay [1] (poacic acid 125 μg/mL + fluconazole 3.8 μg/mL, 24 h, P<0.01) is “significant synergy”. Moreover, the synergy with staurosporine entry in assay [1] (poacic acid 125 μg/ml + staurosporine 100 ng/ml) was “synergy”. Also, the “cell leakage (propidium iodide uptake)” value in assay [2] (actively growing cells (YPD)) is listed as “caused rapid cell leakage”; in assay [2] (arrested cells without carbon source (YP)), “leakage was still significantly greater”. In addition, the “binding to purified yeast glucan” value in assay [3] is on record as “directly binds β-1,3-glucan”. Also, the “glucan staining with aniline blue in buds” value in assay [4] is on record as “significantly decreased glucan staining in buds”. The “mannoprotein staining with Con A” value in assay [4] is on record as “does not change mannoprotein staining”. Besides, in assay [5], the “colony growth on plates” value is listed as “significantly (P<0.01) inhibited”.
